Here are results for 9 compounds from ChEMBL document CHEMBL5620395, “Development and therapeutic potential of allosteric retinoic acid receptor-related orphan receptor γt (RORγt) inverse agonists for autoimmune diseases” (Eur J Med Chem, 2023).

One experiment deals with T1, Peroxisome proliferator-activated receptor gamma (Homo sapiens, UniProt P37231).
T1 sequence (P37231 whole entry): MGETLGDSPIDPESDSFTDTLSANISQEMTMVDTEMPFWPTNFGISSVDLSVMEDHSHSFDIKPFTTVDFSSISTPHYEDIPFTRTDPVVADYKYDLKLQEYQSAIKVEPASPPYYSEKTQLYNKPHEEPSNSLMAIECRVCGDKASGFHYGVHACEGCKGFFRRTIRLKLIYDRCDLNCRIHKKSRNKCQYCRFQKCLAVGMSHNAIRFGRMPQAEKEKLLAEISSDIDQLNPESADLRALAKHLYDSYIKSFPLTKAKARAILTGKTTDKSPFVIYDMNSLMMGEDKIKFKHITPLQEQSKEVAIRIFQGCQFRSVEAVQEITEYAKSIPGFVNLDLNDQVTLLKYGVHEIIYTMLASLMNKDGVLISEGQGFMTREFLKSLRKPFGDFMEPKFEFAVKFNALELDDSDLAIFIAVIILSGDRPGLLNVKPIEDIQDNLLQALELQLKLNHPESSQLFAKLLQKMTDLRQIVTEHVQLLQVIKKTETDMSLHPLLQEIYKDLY
Nature of the experiment: Inverse agonist activity at human his 6 tagged PPARgammaLBD incubated for 60 mins by TR-FRET assay.
Conditions: not given
As a reminder, the IC50 is the concentration at which inhibition is half-maximal. Read a high IC50 as lower potency. In turn, `C[C@H](CCC(=O)NCCOCCOCCOCCOCCOCCOCCOCCOCCOCCOCCOCCOCCOCCOCCOCCNC(=O)c1ccc2c(-c3ccc(C(=O)O)cc3)nn(C(=O)c3c(Cl)cccc3C(F)(F)F)c2c1)[C@H]1CC[C@H]2[C@@H]3CC=C4C[C@@H](O)CC[C@]4(C)[C@H]3CC[C@]12C` had an IC50 of over 100000 nM.

Another experiment has as its target T2, Nuclear receptor ROR-gamma (Homo sapiens, UniProt P51449).
T2 sequence (P51449 whole entry): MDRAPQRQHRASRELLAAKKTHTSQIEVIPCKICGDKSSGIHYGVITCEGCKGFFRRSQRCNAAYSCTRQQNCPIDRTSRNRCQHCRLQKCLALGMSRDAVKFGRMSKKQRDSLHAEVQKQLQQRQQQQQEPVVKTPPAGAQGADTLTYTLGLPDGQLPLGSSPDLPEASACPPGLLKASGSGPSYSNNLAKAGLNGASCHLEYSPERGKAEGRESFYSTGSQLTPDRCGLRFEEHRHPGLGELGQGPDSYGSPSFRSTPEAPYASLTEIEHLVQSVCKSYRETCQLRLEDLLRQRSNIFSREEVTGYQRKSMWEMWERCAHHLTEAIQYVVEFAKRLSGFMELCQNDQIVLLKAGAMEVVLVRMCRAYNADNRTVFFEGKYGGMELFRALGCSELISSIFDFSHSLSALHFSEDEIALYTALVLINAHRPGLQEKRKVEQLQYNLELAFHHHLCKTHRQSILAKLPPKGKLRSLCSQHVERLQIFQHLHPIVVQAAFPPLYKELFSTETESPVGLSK
The experiment is described as follows: Inhibition of RORgamma (unknown origin) incubated for 1 hr by TR-FRET method.
Conditions: not given
(TR-FRET usually uses a lanthanide donor and a delayed reading to cut background.)
Consider `Cc1cc2c(s1)c(-c1ccc(C(=O)O)cc1)nn2C(=O)c1c(Cl)cccc1C(F)(F)F`, for which the IC50 was under 50 nM.

`Cc1cc2c(s1)c(-c1ccc(C(=O)O)c(F)c1)nn2C(=O)c1c(F)cccc1C(F)(F)F` gave a half-maximal inhibitory concentration (IC50) of under 50 nM. `Cc1cc2c(s1)c(-c1ccc(C(=O)O)cc1F)nn2C(=O)c1c(F)cccc1C(F)(F)F` came in with an IC50 of under 50 nM. On the same count and under the same terms, as for `Cc1cc2c(s1)c(-c1ccc(C(=O)O)cc1F)nn2C(=O)c1c(Cl)cccc1C(F)(F)F`, the figure is under 50 nM.

`CN(C)C(=O)c1cc2c(s1)c(-c1ccc(C(=O)O)cc1F)nn2C(=O)c1c(F)cccc1C(F)(F)F`: the IC50 is under 50 nM. The compound `Cc1cc2c(s1)c(-c1ccc(C(=O)O)cc1)nn2C(=O)c1c(C)cccc1Cl` came in with an IC50 of under 50 nM. On the same count and under the same terms, to `Cc1cc2c(s1)c(-c1ccc(C(=O)O)cc1)nn2C(=O)c1c(Cl)cccc1Br` belongs under 50 nM. `Cc1cc2c(s1)c(-c1ccc(C(=O)O)cc1F)nn2C(=O)c1c(Cl)cccc1Cl` yielded an IC50 of under 50 nM.

Tested on in a further experiment: not listed separately
The experiment is described as follows: Inhibition of IL-17a mRNA level in […] at 10 uM incubated for 24 hrs by RT-PCR analysis. The format is functional, cell-based. As to conditions: el4.
For the compound `C[C@H](CCC(=O)NCCOCCOCCOCCOCCOCCOCCOCCOCCOCCOCCOCCOCCOCCOCCOCCNC(=O)c1ccc2c(-c3ccc(C(=O)O)cc3)nn(C(=O)c3c(Cl)cccc3C(F)(F)F)c2c1)[C@H]1CC[C@H]2[C@@H]3CC=C4C[C@@H](O)CC[C@]4(C)[C@H]3CC[C@]12C`, the 50% inhibitory concentration (IC50) is 110 nM.
